Results published in patent publication US4963570A, “1-(acetylaminophenyl)-2-aminopropanone derivatives and pharmaceutical compositions thereof” (Laboratoire L. Lafon, priority 1983, dated 1990).
“Also recorded” adds a separate entry of the source. Where a name gives a salt, the structure may show the parent alone.

How the values were obtained:
male mice = experiment: acute toxicity, intraperitoneal (lethal doses); assay type: in vivo, mouse; settings: i.p.
Protocol: By intraperitoneal administration to male mice, the LD-30 (lethal dose for 30% of the animals tested) is of the order of 128 mg/kg and the LD-50 is of the order of about 200 mg/kg.

mice [1] = experiment: overall behavior and reactivities in mice; assay type: in vivo, mouse; settings: mice, i.p.; dose not stated
Protocol: (§1) Groups of three animals are observed before and then 0.25 hour, 0.50 hour, 1 hour, 2 hours, 3 hours and 24 hours after the administration of CRL 41 224.

rats [2] = experiment: overall behavior and reactivities in rats; assay type: in vivo, rat; settings: i.p., dose not stated
Protocol: as §1

mice [3] = experiment: interaction with apomorphine in mice; assay type: in vivo, mouse; settings: i.p.
Protocol: Groups of 6 mice receive CRL 41 224 0.5 hour before the subcutaneous injection of 1 or 16 mg/kg of apomorphine.

rats [4] = experiment: interaction with apomorphine in rats; assay type: in vivo, rat; settings: i.p., dose not stated
Protocol: CRL 41 224 is administered to groups of 6 rats 0.5 hour before the subcutaneous injection of 0.5 mg/kg of apomorphine.

rats [5] = experiment: interaction with amphetamine; assay type: in vivo, rat; settings: rats, i.p.; dose not stated
Protocol: Amphetamine (2 mg/kg) is injected intraperitoneally into groups of 6 rats 30 minutes after the administration of CRL 41 224.

mice [6] = experiment: interaction with reserpine; assay type: in vivo, mouse; settings: i.p.
Protocol: Four hours after the intraperitoneal injection of 2.5 mg/kg of reserpine, groups of 6 mice receive CRL 41 224.

mice [7] = experiment: interaction with oxotremorine; assay type: in vivo, mouse; settings: i.p.
Protocol: CRL 41 224 is administered to groups of 6 mice 0.5 hour before the intraperitoneal injection of 0.5 mg/kg of oxotremorine.

mice [8] = experiment: four plate test, traction and electric shock; assay type: in vivo, mouse; settings: i.p.
Protocol: The test is performed on groups of 10 mice 30 minutes after the administration of CRL 41 224.

mice [9] = experiment: action on the spontaneous motility (actimeter); assay type: in vivo, mouse; settings: for spontaneous motility / motor activity: mice, i.p., dose not stated
Protocol: 0.5 hour after they have received CRL 41 224, the mice (6 per dose, 12 control animals) are placed in an actimeter, where their motility is recorded for 30 minutes.

mice [10] = experiment: motility reduced by habituation to the enclosure; assay type: in vivo, mouse; settings: i.p.
Protocol: After they have stayed in the actimeters for 18 hours, the mice (6 per dose, 12 control animals) receive CRL 41 224. They are immediately returned to their respective enclosures and, half an hour later, their motility is recorded for 30 minutes.

mice [11] = experiment: motility reduced by hypoxic aggression; assay type: in vivo, mouse; settings: i.p., dose not stated
Protocol: Half an hour after they have received CRL 41 224, the mice (10 per dose, 20 control animals) are subjected to acute hypobaric anoxia [pressure reduction of 600 mm Hg (i.e. about 8×10^4 Pa) in 90 seconds; release of vacuum in 45 seconds] and are then placed in an actimeter, where their motility is recorded for 10 minutes.

mice [12] = experiment: asphyxiant anoxia (gallamine triiodoethylate); assay type: in vivo, mouse; settings: i.p., high dose
Protocol: Groups of 10 mice receive CRL 41 224 half an hour before the intraperitoneal administration of 32 mg/kg of gallamine triiodoethylate (reference curarizing agent).

mice [13] = experiment: interaction with barbital; assay type: in vivo, mouse; settings: for sleep induced by barbital: dose not stated
Protocol: Half an hour after the administration of CRL 41 224, groups of 10 mice receive an intraperitoneal injection of barbital (220 mg/kg).

mice [14] = experiment: action on the behavioral despair; assay type: in vivo, mouse; settings: i.p., dose not stated
Excerpt: Half an hour after they have received CRL 41 224, groups of 6 mice are placed in a beaker filled with water to a height of 6 cm. The total period of immobility between the 2nd and 6th minutes following immersion is noted.

[15] = tested on: spleen cells expressing a direct IgM antibody response; experiment: test for cells forming lysis areas (PFC IgM, Cunningham); assay type: in vivo, mouse; settings: oral; for activity index I / counts ± e.s.m. (lysis areas per spleen): mice
Protocol: Immunological assays were carried out in order to point out the interest of CRL 41 240 as an immunomodulating agent. Specifically, the test used was the so-called test for cells forming lysis areas, described by A. J. […] et al. ("Further improvements in the plaque technique for detecting simple antibody forming cells"), Immunology 14, pages 599-601 (1968).
The test for cells forming lysis areas (or PFC IgM) explores the humoral immunity. Four days after immunization with a T-dependent antigen (in this case red blood corpuscles of sheep), the spleen cells expressing a direct IgM antibody response are counted. The mice used for this purpose are conventional female OF1 mice devoid of specific pathogenic organisms, weighing from 20 to 30 g and divided up into a control group of 14 animals and groups each containing 7 animals per dose and per product to be studied, administered orally on the same day as the antigen. An activity index I is calculated for each dose of product according to the following equation: [formula]
This test is performed at least twice for each dose of test product [C(control amimals), 0.01, 0.1, 10 and 100 mg/kg] and a statistical study is undertaken using the Student t test after variance analysis on the number of lyses per spleen.

CNS = experiment: overall neuropsychopharmacological (CNS) profile; assay type: in vivo, mouse; rat; settings: i.p.
Protocol: The neuropsychopharmacological study of CRL 41 219 was carried out as indicated above for CRL 41 224.
The neuropsychopharmacological study of CRL 41 220 was carried out in accordance with the procedures given above for CRL 41 224.

[16] = tested on: peripheral α-adrenergic stimulation; experiment: signs of peripheral adrenergic stimulation; assay type: in vivo, mouse; rat; settings: i.p.; dose not stated
Protocol: as §1

immunological properties = experiment: immunological properties, overall; assay type: in vivo; settings: dose not stated
Excerpt: The present 1-(acetylaminophenyl)-2-aminopropanone derivatives are useful in therapy. They all act on the CNS, more precisely as antidepressants. They have a stimulant or excitant component in their neuropsychopharmacological profile.

[17] = tested on: spleen cells expressing a direct IgM antibody response; experiment: test for cells forming lysis areas (PFC IgM, Cunningham); assay type: in vivo, mouse; settings: 1 mg/kg
[18] = tested on: delayed hypersensitivity to the red blood corpuscles of sheep; experiment: delayed hypersensitivity to the red blood corpuscles of sheep (Miller); assay type: in vivo; settings: oral, 10 to 100 mg/kg
man = experiment: clinical trials; assay type: in vivo, human; settings: tablets or gelatine capsules 2 mg, 2 to 3 per day
mice [19] = experiment: toxicity to grouped mice compared with isolated mice; assay type: in vivo, mouse
rats [20] = experiment: action on stereotypies in rats (α-methyltyrosine, haloperidol, reserpine); settings: i.p.

CC(=O)Nc1ccc(C(=O)C(C)N2CCCCC2)cc1 (stereo not shown) [CRL 41 240, 1-(4-acetylaminophenyl)-2-piperidinopropanone hydrochloride]
LD-0 (maximum non-lethal dose) (male mice): greater than 256 mg/kg
excitation in mice (mice [1]): excitation in mice
stereotype movements in mice (mice [1]): presence of stereotype movements
excitation in rats (rats [2]): excitation in mice and rats
stereotype movements in rats (rats [2]): presence of stereotype movements
hypothermia induced by apomorphine (mice [3]; dose not stated): antagonism of the hypothermia induced by apomorphine
stereotypies induced by apomorphine (rats [4]): potentiation of the stereotypies induced by apomorphine
stereotypies induced by amphetamine (rats [5]): potentiation of the stereotypies induced by apomorphine and amphetamine
hypothermia induced by reserpine (mice [6]; dose not stated): antagonism of the hypothermia induced by apomorphine, reserpine
ptosis induced by reserpine (mice [6]; dose not stated): antagonism of the ptosis induced by reserpine
hypothermia induced by oxotremorine (mice [7]; dose not stated): antagonism of the hypothermia induced by apomorphine, reserpine and oxotremorine
convulsant effects of electric shock (mice [8]; strong/high dose): antagonism of the convulsant effects of electric shock
spontaneous motility / motor activity (mice [9]): increase in the motor activity
motor activity after habituation to the enclosure (mice [10]; dose not stated): resumption in the activity of mice accustomed to their enclosure
motor recovery after hypoxic aggression (mice [11]): improvement in the motor recovery
time taken for asphyxiant convulsions (and death) to occur (mice [12]): increase in the time taken for asphyxiant convulsions to occur
sleep induced by barbital (mice [13]; i.p.): very distinct antagonism of the sleep induced by barbital
period of immobility or "despair" (mice [14]): reduction in the period of immobility
minimal effective dose ([15]; Mus musculus, female OF1 mice, read-out: lowest immunologically active dose): 0.1 mg/kg
activity index I ([15]; 0.01 mg/kg): 1.23
counts ± e.s.m. (lysis areas per spleen) ([15]; 0.01 mg/kg): 64.5 ± 11.99 m.10^3 /rate
activity index I ([15]; 0.1 mg/kg): 1.25
counts ± e.s.m. (lysis areas per spleen) ([15]; 0.1 mg/kg): 65.7 ± 11.60 m.10^3 /rate
activity index I ([15]; 10 mg/kg): 1.52
counts ± e.s.m. (lysis areas per spleen) ([15]; 10 mg/kg): 79.4 ± 11.54 m.10^3 /rate
activity index I ([15]; 100 mg/kg): 1.31
counts ± e.s.m. (lysis areas per spleen) ([15]; 100 mg/kg): 68.8 ± 7.21 m.10^3 /rate
overall action on the CNS (CNS; mice and rats, dose not stated): behaves as an antidepressant and stimulant for the CNS
exophthalmos [16]: exophthalmos
mydriasis [16]: mydriasis
peripheral adrenergic stimulation, overall [16]: peripheral α-adrenergic stimulation
immunological properties, overall (immunological properties): beneficial immunomodulating effects
activity index I ([17]; mice, oral): 1.65
counts ± e.s.m. (lysis areas per spleen) ([17]; mice, oral): 86.5 ± 13.74 m.10^3 /rate

CC(=O)Nc1cccc(C(=O)C(C)NC(C)C)c1 (stereo not shown) [CRL 41 254]
LD-0 (maximum non-lethal dose) (male mice): greater than 256 mg/kg
LD-100 (male mice): less than or equal to 512 mg/kg
hypothermia induced by apomorphine (mice [3]; strong doses): antagonism of the hypothermia induced by apomorphine
hypothermia induced by reserpine (mice [6]; strong doses): no antagonism of the hypothermia induced by reserpine
hypothermia induced by oxotremorine (mice [7]; strong/high doses): antagonism of the hypothermia induced by apomorphine and oxotremorine
motor activity after habituation to the enclosure (mice [10]; strong doses): a moderate resumption in the motor activity of mice accustomed to their enclosure
duration of the sleep induced by barbital (mice [13]; i.p., strong/high doses): a reduction in the duration of the sleep induced by barbital
immunostimulant activity, delayed hypersensitivity [18]: statistically significant immunostimulant activity
overall action on the CNS (CNS; strong/high doses): modest antidepressant effects; also recorded: weak stimulant effects
immunological properties, overall (immunological properties): beneficial immunomodulating effects
immunostimulant activity, PFC IgM test [17]: statistically significant immunostimulant activity

CC(=O)Nc1ccc(C(=O)C(C)NC(C)(C)C)cc1 (stereo not shown) [CRL 41 177]
excitation in mice (mice [1]): excitation with hyperreactivity in mice
stereotype movements in rats (rats [2]): stereotype movements in rats
hypothermia induced by apomorphine (mice [3]; dose not stated): antagonism of the hypothermia induced by apomorphine
stereotypies induced by apomorphine (rats [4]): potentiation of the stereotypies induced by apomorphine
stereotypies induced by amphetamine (rats [5]): potentiation of the stereotypies induced by apomorphine or amphetamine
hypothermia induced by reserpine (mice [6]; dose not stated): antagonism of the hypothermia induced by apomorphine, oxotremorine or reserpine
ptosis induced by reserpine (mice [6]; dose not stated): antagonism of the ptosis induced by reserpine
hypothermia induced by oxotremorine (mice [7]; dose not stated): antagonism of the hypothermia induced by apomorphine, oxotremorine
trembling caused by oxotremorine (mice [7]; dose not stated): antagonism of the trembling caused by oxotremorine
convulsant effects of electric shock (mice [8]; dose not stated): potentiate the convulsant effects of electric shock
effect on spontaneous motility, gastric versus intraperitoneal (mice [9]; male mice, gastric): greater than on intraperitoneal administration
spontaneous motility / motor activity (mice [9]): an increase in the spontaneous motility in mice
motor activity after habituation to the enclosure (mice [10]; dose not stated): a resumption in the motor activity of mice accustomed to their enclosure
motor recovery after hypoxic aggression (mice [11]): an improvement in the motor recovery in mice after acute hypoxia
sleep induced by barbital (mice [13]; i.p.): antagonism of the sleep induced by barbital
interaction with barbital, gastric versus intraperitoneal (mice [13]; male mice, gastric): greater than on intraperitoneal administration
period of immobility or "despair" (mice [14]): a reduction in the immobility
clinical result: antidepressant (man): excellent antidepressant drug
overall action on the CNS (CNS; mice and rats, dose not stated): stimulant effects; also recorded: antidepressant effects
exophthalmos [16]: absent
mydriasis [16]: mydriasis
peripheral adrenergic stimulation, overall [16]: effects which may reflect peripheral adrenergic stimulation
salivation [16]: absent
toxicity to grouped mice compared with isolated mice (mice [19]): do not increase the toxicity to grouped mice
suppression of induced stereotype movements by prior injection of alpha-methyltyrosine (rats [20]): not suppressed
